Reference: ChEMBL document CHEMBL1150255, “Spongian diterpenes with thyrotropin releasing hormone receptor 2 binding affinity from Spongia sp” (J Nat Prod, 2008)
pIC50: −log10 of the molar value.

molecular target: T1, Thyrotropin-releasing hormone receptor 2 (Rattus norvegicus, UniProt A6IZR3); test: Displacement of [3H]3-methylhistidyl-TRH from rat recombinant TRHR2 expressed in […] cells; assay type: cell-based
T1 sequence (A6IZR3 whole entry): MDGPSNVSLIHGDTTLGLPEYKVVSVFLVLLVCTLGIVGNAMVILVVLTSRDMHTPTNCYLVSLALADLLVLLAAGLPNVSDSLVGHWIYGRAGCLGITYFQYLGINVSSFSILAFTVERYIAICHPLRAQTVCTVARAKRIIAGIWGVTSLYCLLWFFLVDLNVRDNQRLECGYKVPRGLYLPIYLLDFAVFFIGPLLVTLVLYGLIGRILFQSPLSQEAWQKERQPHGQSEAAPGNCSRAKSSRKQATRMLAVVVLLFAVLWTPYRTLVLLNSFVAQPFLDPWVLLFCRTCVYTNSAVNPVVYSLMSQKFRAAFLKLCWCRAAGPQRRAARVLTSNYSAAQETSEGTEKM

| pIC50 | Compound |
| --- | --- |
| 3.00 | CC1(C)CCC[C@]2(C)[C@H]3CCc4cocc4[C@]3(C)CC[C@@H]12 |
| 3.40 | CC(=O)OC[C@@]1(C)CCC[C@]2(COC(C)=O)[C@H]3CCc4cocc4[C@]3(C)CC[C@@H]12 |
| 4.15 | CC(=O)OC[C@@]1(C)CCC[C@]2(CO)[C@H]3CCc4cocc4[C@]3(C)CC[C@@H]12 |
| 3.22 | C[C@]1(CO)CCC[C@]2(CO)[C@H]3CCc4cocc4[C@]3(C)CC[C@@H]12 |
| 4.64 | CC(=O)OC[C@]12CCC[C@](C)(CO)[C@@H]1CC[C@@]1(C)c3cocc3CC[C@H]21 |
| 7.64 | NC(=O)[C@@H]1CCCN1C(=O)[C@H](Cc1cnc[nH]1)NC(=O)[C@@H]1CCC(=O)N1 [PROTIRELIN] |
